In patent US10238638B2, “Benzothiazole and benzothiophene compounds” (Bristol-Myers Squibb Company, priority 2015, dated 2019):
pIC50: −log10 of the molar value.

Target: PAR4 (Homo sapiens (Human), UniProt Q96RI0)
Assay: FLIPR assay in PAR4-expressing HEK293 cells (calcium mobilization)
Format: cell-based
Conditions: H-Ala-Phe(4-F)-Pro-Gly-Trp-Leu-Val-Lys-Asn-Gly-NH2-induced calcium mobilization, PAR4 antagonist activity
Text: The FLIPR assay is an exemplary in vitro assay for measuring the activity of the PAR4 antagonists of the present invention. In this assay, intracellular calcium mobilization is induced in PAR4 expressing cells by a PAR4 agonist and calcium mobilization is monitored.
HEK293 cells stably expressing PAR4 were generated by a standard method of transfection of human PAR4 (F2R23) cDNA expression vector and selected based on PAR4 protein expression or mRNA expression. […] Therefore, the same cells were also used to determine selectivity against PAR1 and agonist activity for both receptors.
FLIPR-based calcium mobilization assay in HEK293 cells was used to measure PAR4 antagonism, agonism, and selectivity against PAR1. […] Counter screens for agonist activity and PAR1 antagonist activity were also performed. Briefly, PAR1/PAR4-expressing HEK293 cells were grown in DMEM (Life Technology, Grand Island, N.Y.) containing 10% heat-inactivated FBS, 1% Penicillin-Streptomycin, 10 μg/mL blasticidin, and 100 μg/mL Zeocin at 37° C. with 5% CO2. Cells were plated overnight prior to the experiment in a black 384-well Purecoat Amine clear bottom plate (Becton Dickinson Biosciences, San Jose, Calif.) at 10,000 cells/well in 30 μL growth medium and incubated in a humidified chamber at 37° C. with 5% CO2 overnight. Prior to compound addition, the cell medium was replaced with 40 μL of 1× calcium and magnesium-containing Hank's Balanced Saline Solution (HBSS) (with 20 mM HEPES) and 1:1000 diluted fluorescent calcium indicator (Codex Biosolutions, Gaithersburg, Md.). After a 30 minute incubation period at 37° C. and a further 30 minute incubation and equilibration period at room temperature, 20 μL test compound (diluted in 1×HBSS buffer) was added at various concentrations at 0.17% dimethyl sulfoxide (DMSO) final concentration. Changes in fluorescence intensity were measured using a Functional Drug Screening System (FDSS, Hamamatsu, Japan) to determine agonist activities. The cells were then incubated for 30 minutes at room temperature followed by addition of 20 μL of agonist peptide for antagonist activity measurement. […] Compound potency was derived from 11-point concentration-response curves.

PAR4, sequence (Q96RI0 18-385): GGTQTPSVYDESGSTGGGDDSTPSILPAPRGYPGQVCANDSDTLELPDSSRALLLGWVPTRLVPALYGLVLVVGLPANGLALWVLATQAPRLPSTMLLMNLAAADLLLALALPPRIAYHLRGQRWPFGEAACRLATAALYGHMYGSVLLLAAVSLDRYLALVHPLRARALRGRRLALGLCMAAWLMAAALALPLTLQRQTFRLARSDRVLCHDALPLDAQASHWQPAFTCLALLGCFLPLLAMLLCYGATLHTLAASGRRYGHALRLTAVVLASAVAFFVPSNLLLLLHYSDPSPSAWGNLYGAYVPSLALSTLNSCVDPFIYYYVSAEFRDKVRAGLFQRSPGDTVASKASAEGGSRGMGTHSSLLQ

Compound | pIC50
CCc1nn2cc(-c3nc4cc(OC)cc(OCc5csc(-c6ccc(C(=O)NCC(C)(C)CO)cc6)n5)c4s3)nc2s1 [Example 32, 4-(4-(((2-(2-Ethylimidazo[2,1-b][1,3,4]thiadiazol-6-yl)-5-methoxybenzo[d]thiazol-7-yl)oxy)methyl)thiazol-2-yl)-N-(3-hydroxy-2,2-dimethylpropyl)benzamide] | 5.85
COc1cc(OCc2csc(-c3ccc(C(=O)N4CC[C@@H](CO)C4)cc3)n2)c2sc(-c3cn4nc(C(C)(F)F)sc4n3)nc2c1 [Example 20, (R)-(4-(4-(((2-(2-(1,1-Difluoroethyl)imidazo[2,1-b][1,3,4]thiadiazol-6-yl)-5-methoxybenzo[d]thiazol-7-yl)oxy)methyl)thiazol-2-yl)phenyl)(3-(hydroxymethyl)pyrrolidin-1-yl)methanone] | 5.92
COc1cc(OCc2csc(-c3ccc(C(=O)N(C)CC#N)cc3)n2)c2sc(-c3cn4nc(C(C)(F)F)sc4n3)nc2c1 [Example 17, N—(Cyanomethyl)-4-(4-(((2-(2-(1,1-difluoroethyl)imidazo[2,1-b][1,3,4]thiadiazol-6-yl)-5-methoxybenzo[d]thiazol-7-yl)oxy)methyl)thiazol-2-yl)-N-methylbenzamide] | 5.59
CCc1nn2cc(-c3nc4cc(OC)cc(OCc5csc(-c6ccc(C(=O)N7CCC(CCO)CC7)cc6)n5)c4s3)nc2s1 [Example 36, (4-(4-(((2-(2-Ethylimidazo[2,1-b][1,3,4]thiadiazol-6-yl)-5-methoxybenzo[d]thiazol-7-yl)oxy)methyl)thiazol-2-yl)phenyl)(4-(2-hydroxyethyl)piperidin-1-yl)methanone] | 5.89
COc1cc(OCc2csc(-c3ccc(C(=O)N4CCC(C)(CO)CC4)cc3)n2)c2sc(-c3cn4nc(C)sc4n3)nc2c1 [Example 67] | 6.03
CCc1nn2cc(-c3nc4cc(OC)cc(OCc5csc(-c6ccc(C(=O)N7CCC[C@H](O)C7)cc6)n5)c4s3)nc2s1 [Example 33, (S)-(4-(4-(((2-(2-Ethylimidazo[2,1-b][1,3,4]thiadiazol-6-yl)-5-methoxybenzo[d]thiazol-7-yl)oxy)methyl)thiazol-2-yl)phenyl)(3-hydroxypiperidin-1-yl)methanone] | 5.44
COc1cc(OCc2csc(-c3ccc(C(=O)O)cc3)n2)c2sc(-c3cn4nc(C(C)(F)F)sc4n3)nc2c1 [Example 14, 4-(4-(((2-(2-(1,1-Difluoroethyl)imidazo[2,1-b][1,3,4]thiadiazol-6-yl)-5-methoxybenzo[d]thiazol-7-yl)oxy)methyl)thiazol-2-yl)benzoic acid] | 4.06
COc1cc(OCc2csc(-c3ccc(C(=O)N(CCO)C(C)(C)C)cc3)n2)c2sc(-c3cn4nc(C(C)(F)F)sc4n3)nc2c1 [Example 19, N-(tert-Butyl)-4-(4-(((2-(2-(1,1-difluoroethyl)imidazo[2,1-b][1,3,4]thiadiazol-6-yl)-5-methoxybenzo[d]thiazol-7-yl)oxy)methyl)thiazol-2-yl)-N-(2-hydroxyethyl)benzamide] | 4.09
COc1cc(OCc2csc(-c3ccc(C(=O)N4CCC[C@H](O)C4)cc3)n2)c2sc(-c3cn4nc(C)ccc4n3)nc2c1 [Example 48, (S)-(3-Hydroxypiperidin-1-yl)(4-(4-(((5-methoxy-2-(6-methylimidazo[1,2-b]pyridazin-2-yl)benzo[d]thiazol-7-yl)oxy)methyl)thiazol-2-yl)phenyl)methanone] | 5.00
COc1cc(OCc2csc(-c3ccc(C(=O)N(CCO)C(C)(C)C)cc3)n2)c2sc(-c3cn4nc(C5CC5)sc4n3)nc2c1 [Example 29, N-(tert-Butyl)-4-(4-(((2-(2-cyclopropylimidazo[2,1-b][1,3,4]thiadiazol-6-yl)-5-methoxybenzo[d]thiazol-7-yl)oxy)methyl)thiazol-2-yl)-N-(2-hydroxyethyl)benzamide] | 4.10

Continued, values first:

pIC50 | Compound
6.01 | COc1cc(OCc2csc(-c3ccc(C(=O)N(C)C4CCOCC4)cc3)n2)c2sc(-c3cn4nc(C)sc4n3)nc2c1 [Example 10, 4-(4-(((5-Methoxy-2-(2-methylimidazo[2,1-b][1,3,4]thiadiazol-6-yl)benzo[d]thiazol-7-yl)oxy)methyl)thiazol-2-yl)-N-methyl-N-(tetrahydro-2H-pyran-4-yl)benzamide]
5.89 | CCc1nn2cc(-c3nc4cc(OC)cc(OCc5csc(-c6ccc(C(=O)N(C)[C@H]7CCOC7)cc6)n5)c4s3)nc2s1 [Example 34, (S)-4-(4-(((2-(2-Ethylimidazo[2,1-b][1,3,4]thiadiazol-6-yl)-5-methoxybenzo[d]thiazol-7-yl)oxy)methyl)thiazol-2-yl)-N-methyl-N-(tetrahydrofuran-3-yl)benzamide]
5.43 | COc1cc(OCc2csc(-c3ccc(C(=O)N(C)[C@H]4CCOC4)cc3)n2)c2sc(-c3cn4nc(C(C)(F)F)sc4n3)nc2c1 [Example 15, (S)-4-(4-(((2-(2-(1,1-Difluoroethyl)imidazo[2,1-b][1,3,4]thiadiazol-6-yl)-5-methoxybenzo[d]thiazol-7-yl)oxy)methyl)thiazol-2-yl)-N-methyl-N-(tetrahydrofuran-3-yl)benzamide]
5.42 | COc1cc(OCc2csc(-c3ccc(C(=O)N(C)C)cc3)n2)c2sc(-c3cn4nc(C)sc4n3)nc2c1 [Example 6, 4-(4-(((5-Methoxy-2-(2-methylimidazo[2,1-b][1,3,4]thiadiazol-6-yl)benzo[d]thiazol-7-yl)oxy)methyl)thiazol-2-yl)-N,N-dimethylbenzamide]
5.62 | COc1cc(OCc2csc(-c3ccc(C(=O)OC(C)(C)C)cc3)n2)c2sc(-c3cn4nc(C)sc4n3)nc2c1 [Example 1, tert-Butyl 4-(4-(((5-methoxy-2-(2-methylimidazo[2,1-b][1,3,4]thiadiazol-6-yl)benzo[d]thiazol-7-yl)oxy)methyl)thiazol-2-yl)benzoate]
5.38 | COc1cc(OCc2csc(-c3ccc(C(=O)N4CCC[C@H](O)C4)cc3)n2)c2sc(-c3cn4nc(C)sc4n3)nc2c1 [Example 4]
5.44 | COc1cc(OCc2csc(-c3ccc(C(=O)N(C)[C@H]4CCOC4)cc3)n2)c2sc(-c3cn4nc(C)sc4n3)nc2c1 [Example 3, (S)-4-(4-(((5-methoxy-2-(2-methylimidazo[2,1-b][1,3,4]thiadiazol-6-yl)benzo[d]thiazol-7-yl)oxy)methyl)thiazol-2-yl)-N-methyl-N-(tetrahydrofuran-3-yl)benzamide]
5.92 | COc1cc(OCc2csc(-c3ccc(C(=O)N(C)CC#N)cc3)n2)c2sc(-c3cn4nc(C5CC5)sc4n3)nc2c1 [Example 27, N-(Cyanomethyl)-4-(4-(((2-(2-cyclopropylimidazo[2,1-b][1,3,4]thiadiazol-6-yl)-5-methoxybenzo[d]thiazol-7-yl)oxy)methyl)thiazol-2-yl)-N-methylbenzamide]
4.52 | COc1cc(OCc2csc(-c3ccc(C(=O)N(CCO)C(C)(C)C)cc3)n2)c2sc(-c3cn4nc(C)sc4n3)nc2c1 [Example 7]
5.96 | COc1cc(OCc2csc(-c3ccc(C(=O)N(C)CC#N)cc3)n2)c2sc(-c3cn4nc(C)sc4n3)nc2c1 [Example 5, N—(Cyanomethyl)-4-(4-(((5-methoxy-2-(2-methylimidazo[2,1-b][1,3,4]thiadiazol-6-yl)benzo[d]thiazol-7-yl)oxy)methyl)thiazol-2-yl)-N-methylbenzamide]
